Source: patent US12360111B2, “G protein-coupled receptor screening systems” (The University of North Carolina at Chapel Hill, priority 2018, dated 2025)
Entries after “also recorded” stand apart in the source; their conditions may differ. Where two headings read alike, the source gives them in different places.

What was measured:
HEK293 cells = test: Calcium release in HEK293 cells without serotonin receptors; assay type: cell-based; conditions: cells do not express serotonin (5-HT) receptors
[1] = system: 5-HT5A receptor fused to Gi, Gq or Gs; test: [35S]GTPγS loading at 5-HT5A receptor-Gα fusions; assay type: biochemical; conditions: Gi vs Gq vs Gs fusions
[2] = system: serotonin-5A receptor (HTR5A)-Gαi1 RLuc fusion; test: Fusion BRET at HTR5A-Gαi1 RLuc; assay type: cell-based
[3] = system: Gα proteins fused to the μ-opioid receptor (MOR); test: Competition radioligand binding at six Gα proteins fused to MOR
[4] = system: mu-opioid receptor fused to Gαi1-RLuc8 chimera (MOR-Gi1RLuc); conditions: for binding to and GPPNHP elution from membranes (in words): unfused MOR vs MOR-Gαi1 membranes
[5] = target: T1, KOR, Gαi/o-class TRUPATH sensors (Homo sapiens, UniProt P41145); assay type: cell-based
T1 construct: expressed in transfected cells

[6] = target: T2, μ-opioid receptor (MOR) fused to Gαi1 protein (MOR-Gi1) (Homo sapiens, UniProt P35372+P63096); test: ADSoRB screen with radiolabeled agonist tracer at MOR-Gi1 microsomes; assay type: binding
T2 construct: expressed in transfected cells; host or cells: HEK293 suspension cells, microsomal membranes

[7] = target: T3, mu-opioid receptor unfused (MOR) (Homo sapiens, UniProt P35372); assay type: binding
T3 construct: expressed in transfected cells

μ-opioid receptor (MOR) = target: T4, μ-opioid receptor (MOR) (Homo sapiens, UniProt P35372); test: TRUPATH after alkylation of MOR with β-FNA (receptor reserve); assay type: cell-based; conditions: increasing β-FNA treatment
T4 construct: expressed in transfected cells
T4 sequence (P35372 whole entry): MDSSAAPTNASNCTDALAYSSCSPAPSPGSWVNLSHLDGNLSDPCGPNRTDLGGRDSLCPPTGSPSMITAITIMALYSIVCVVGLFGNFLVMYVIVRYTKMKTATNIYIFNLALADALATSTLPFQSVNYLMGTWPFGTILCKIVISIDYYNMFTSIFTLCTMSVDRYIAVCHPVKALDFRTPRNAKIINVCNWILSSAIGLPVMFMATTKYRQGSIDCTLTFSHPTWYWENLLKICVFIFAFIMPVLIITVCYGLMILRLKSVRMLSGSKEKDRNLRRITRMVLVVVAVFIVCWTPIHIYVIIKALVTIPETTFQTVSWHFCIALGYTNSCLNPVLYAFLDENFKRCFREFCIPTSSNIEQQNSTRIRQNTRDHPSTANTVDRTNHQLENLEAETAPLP

T2 sequence (P35372+P63096 fused): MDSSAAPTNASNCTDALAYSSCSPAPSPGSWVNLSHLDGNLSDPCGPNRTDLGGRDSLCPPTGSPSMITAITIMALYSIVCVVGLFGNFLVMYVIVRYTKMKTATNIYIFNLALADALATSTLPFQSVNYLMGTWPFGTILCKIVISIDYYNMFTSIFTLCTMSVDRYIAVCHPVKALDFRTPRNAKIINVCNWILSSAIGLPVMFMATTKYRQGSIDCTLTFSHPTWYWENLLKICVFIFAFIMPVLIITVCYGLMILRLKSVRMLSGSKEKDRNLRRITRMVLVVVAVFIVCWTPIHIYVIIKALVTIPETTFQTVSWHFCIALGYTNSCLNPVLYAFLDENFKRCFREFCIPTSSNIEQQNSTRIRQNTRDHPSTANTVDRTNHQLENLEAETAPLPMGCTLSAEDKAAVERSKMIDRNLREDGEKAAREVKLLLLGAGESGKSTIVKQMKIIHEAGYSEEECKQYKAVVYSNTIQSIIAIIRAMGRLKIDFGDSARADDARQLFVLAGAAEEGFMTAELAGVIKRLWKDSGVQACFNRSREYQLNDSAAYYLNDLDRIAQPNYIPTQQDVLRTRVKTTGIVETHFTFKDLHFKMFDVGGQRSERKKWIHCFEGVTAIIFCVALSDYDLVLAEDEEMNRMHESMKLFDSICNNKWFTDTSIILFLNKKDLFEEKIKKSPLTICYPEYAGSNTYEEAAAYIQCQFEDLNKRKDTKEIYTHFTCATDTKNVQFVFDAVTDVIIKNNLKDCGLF
T1 sequence (P41145 whole entry): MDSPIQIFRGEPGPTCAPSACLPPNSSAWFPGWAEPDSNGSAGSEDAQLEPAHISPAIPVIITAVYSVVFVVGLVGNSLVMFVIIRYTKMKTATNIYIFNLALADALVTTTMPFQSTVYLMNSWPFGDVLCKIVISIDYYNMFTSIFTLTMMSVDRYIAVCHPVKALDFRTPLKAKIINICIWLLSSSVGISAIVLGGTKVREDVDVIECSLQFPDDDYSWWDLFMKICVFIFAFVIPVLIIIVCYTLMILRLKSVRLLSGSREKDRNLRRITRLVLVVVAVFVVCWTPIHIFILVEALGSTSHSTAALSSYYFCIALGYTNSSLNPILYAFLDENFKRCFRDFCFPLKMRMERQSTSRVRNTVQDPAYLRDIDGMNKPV
T3 sequence (P35372 whole entry, the tested form may be a part): as the sequence (P35372 whole entry) above

## NCCc1c[nH]c2ccc(O)cc12 [5-HT]
HEK293 cells
  calcium release (in words): do not cause calcium release
[1]
  G protein activation ([35S]GTPγS loading, in words): only seen at the Gi fusion
[2]
  BRET response (in words): reliable and substantial serotonin response

## C[C@@H](NC(=O)[C@@H](N)Cc1ccc(O)cc1)C(=O)NCC(=O)N(C)[C@@H](Cc1ccccc1)C(=O)NCCO [DAMGO]
[3]
  affinity shift vs unfused MOR (in words): shift compared to unfused MOR
[4]
  binding to and GPPNHP elution from membranes (in words): ability to bind and elute

## COc1cc(CC(C)N)c(OC)cc1I (centres unmarked) [DOI]
HEK293 cells
  calcium release (in words): do not cause calcium release

## COC(=O)N1CCN(C(=O)Cc2ccc(Cl)c(Cl)c2)C(CN2CCCC2)C1 (centres unmarked) [GR89,696]
[5]
  efficacy across transducers (in words): activated all transducers with equal efficacy

## CCN(CC)C(=O)N[C@H]1C=C2c3cccc4[nH]cc(c34)C[C@H]2N(C)C1 [Lisuride]
HEK293 cells
  calcium release (in words): do not cause calcium release

## O=C(c1ccccn1)N(Cc1cccs1)C1(C(=O)NC2CCCCC2)CCCCC1 [ML139]
[5]
  efficacy across transducers (in words): activated all transducers with equal efficacy

## COc1ccsc1CNCC[C@@]1(c2ccccn2)CCOC2(CCCC2)C1 [TRV130]
[3]
  affinity shift vs unfused MOR (in words): shift compared to unfused MOR

## C[C@@H](NC(=O)[C@@H](N)Cc1ccc(O)cc1)C(=O)NCC(=O)N(C)[C@@H](Cc1ccccc1)C(=O)NCCO [[3H]DAMGO]
[6]; GPPNHP elution
  elution upon complex dissociation/uncoupling with GPPNHP: 30 % of total agonist added
[6]; buffer elution
  elution with buffer control: 2 % of total agonist added
[7]
  elution upon complex dissociation with GPPNHP: 0.8 % of total
  unbound tracer: 67%
[4]; MOR-Gi1RLuc complex
  unbound tracer: 23%
[4]; high affinity MOR-Gi1RLuc complex
  elution upon complex dissociation with GPPNHP: 7 % of total
[4]; listed as [^3H]DAMGO
  binding to and GPPNHP elution from membranes (in words): binds more strongly to the MOR-Gαi1 complex; also recorded: elutes to a greater extent

## COC(=O)/C=C/C(=O)N[C@@H]1CC[C@@]2(O)[C@H]3Cc4ccc(O)c5c4[C@@]2(CCN3CC2CC2)[C@H]1O5 [β-FNA]
μ-opioid receptor (MOR)
  effect on maximal efficacy (Emax): strong inhibition of maximal efficacy
  effect on potency: minimal effect on potency

## Leu-enkephalin
[3]
  affinity shift vs unfused MOR (in words): shift compared to unfused MOR
